Measurements published in article PMC3368197, “Noncytotoxic and Antitumour-Promoting Activities of Garcinia Acid Esters from Garcinia atroviridis Griff. ex T. Anders (Guttiferae)” (Evidence-based Complementary and Alternative Medicine : eCAM, 2012).
Where two headings read alike, the source gives them in different places.

Assays:
[1] = tested on: CEM-SS (human T-lymphoblastic leukemia) cells; test: MTT cytotoxicity assay; type: cell-based; conditions: 72 h
Description: The CEM-SS (human T-lymphoblastic leukemia) cell line was obtained from the National Cancer Institute, USA, and the Raji (human B-lymphoblastoid) cell line was provided by Prof. K. Koshimizu, Kinki University, Japan. Cells were cultured in RPMI-1640 (Sigma, USA) medium with 10% v/v foetal calf serum (Sera Lab, UK), 100 IU/mL penicillin (Sigma, USA) and 100 μg/mL streptomycin (Sigma, USA) as a complete growth medium (CGM). Cells were maintained in 25 cm^2 flask with 10 mL of CGM at 37°C with 5% CO2. Every three days the cells were subcultured by splitting the culture with fresh CGM at a ratio of 1 : 4 [10].
Cytotoxicity was determined using the MTT assay as reported by Ali et al.. Varying concentrations of the test compounds were prepared from the stock solutions by serial dilution in RPMI-1640 to give a volume of 100 μL in each well of a microtiter plate (96-well) as described before. Each well was filled with 100 μl of CEM-SS cell suspension in CGM at 1-2 × 10^5 cells/mL. Controls that contained only CEM-SS cells were included for each sample. The assay for each concentration of extract was performed in triplicate and the culture plates were kept at 37°C with 5% (v/v) CO2 for three days. After 72 h of incubation, 100 μL of medium was removed from each well. […] Absorbance values at 550 nm were measured with a microplate reader (Bio Tek EL 340, USA) after background subtraction at 630 nm. […]

[2] = tested on: Brine shrimp (Artemia saline Leach); test: Brine shrimp lethality/toxicity assay; type: in vivo; conditions: brine shrimp nauplii, preliminary test concentration 300 μM
Description: Brine shrimp (Artemia saline Leach) eggs (Gold Eagle, USA) were placed in a hatching tank containing sea water for 48 h. Each compound (6 μmol) was dissolved in 0.2 mL methylene chloride:methanol (1 : 1) to prepare a stock solution of 30 mM. From the stock solutions, 50 μL was transferred to different vials and allowed to evaporate. After evaporation, 5 mL of brine was added to each vial in triplicate to prepare a preliminary test concentration corresponding to 300 μM. Ten shrimp nauplii were added to each vial (30 shrimps per concentration). The number of survivors out of 30 shrimps per concentration was recorded.

[3] = tested on: Epstein-Barr virus early antigen (EBV-EA) activation; test: In vitro antitumour-promoting assay: inhibition of EBV early antigen activation in Raji cells; type: cell-based; conditions: for IC50: human gammaherpesvirus 4, Raji cells, 3 mM sodium n-butyrate + 50 nM PMA, 48 h
Description: The inhibition of Epstein-Barr virus (EBV) activation was used to evaluate in vitro antitumour-promoting activity. Raji cells were incubated for 48 h at 37°C under 5% CO2 in 1 mL (~5 × 10^5 cells) of RPMI-1640 medium containing 3 mM sodium n-butyrate ([…] Tesque, Japan), 50 nM phorbol 12-myristate 13-acetate (PMA) (Sigma, USA) and the test compounds (600 μM) per well of a 24-well plate. Conventional indirect immunofluorescence staining of early antigen (EA) with high-titre EA-positive serum (EA titre 1 : 1,280) obtained from nasopharyngeal carcinoma (NPC) patients (1 : 20 serum dilution) followed by a 1 : 30 dilution of fluorescein-isothiocyanate-(FITC-)labeled IgG (Sigma, USA) was used to measure EBV activation. The ratio of EA-induced cells to the control experiments only with sodium n-butyrate and PMA was around 50%. The test compounds showing antitumour-promoting activity were serially diluted (2-fold) to determine the IC50 values.

[4] = DPPH radical scavenging method; conditions: 0.3 mM, 30 min
Description: The methanol solution of 2,2-diphenyl-1-picrylhydrazyl hydrate (DPPH) (Aldrich Chem. Co., USA) radicals (1 mL, 0.3 mM) was added to each sample (1 mM, 0.5 mL) and was shaken vigorously. The absorbance of each sample was measured at 517 nm after allowing it to stand for 30 min. Each sample (final concentration, 0.3 mM) was assayed in triplicate and averaged. Standard antioxidants, that is, butylated hydroxytoluene (BHT) and ascorbic acid, were used as positive controls.

[5] = tested on: Epstein-Barr virus early antigen (EBV-EA) activation; design: method as in PMID 9247600, PMID 22140296; conditions: known antitumour promoter; read-out: IC50, inhibition of EBV activation; cited from earlier work

SMILES	CD50 [1]	LC50 [2]	IC50 [3]	Radical scavenging (%), DPPH assay [4]	IC50 [5]	fold higher antitumour-promoting activity than compound 2 ([3]; ratio of EBV-EA IC50 values)
CCCCOC(=O)CC(O)(C(=O)OC)C(O)C(=O)OCCCC (stereo not shown) [Compound 2, 1′,1′′-dibutyl methyl hydroxycitrate]	> 100 µM	> 300 µM	560 µM	5.5%		
O=c1c(-c2ccc(O)cc2)coc2cc(O)cc(O)c12 [genistein]					~20 µM	
CCCCOC(=O)CC1(O)C(=O)OC1C(=O)OCCCC (stereo not shown) [Compound 1, 2-(butoxycarbonylmethyl)-3-butoxycarbonyl-2-hydroxy-3-propanolide]	> 100 µM	> 300 µM	70 µM	3.4%		8 fold
